Data as given in patent US9675702B2, “Methods and compositions for the sustained release of chromium” (JDS Therapeutics, LLC, priority 2007, dated 2017).
Like-named read-outs stand apart in the source and are kept apart here.

Key:
rats = conditions: cited from earlier work
[1] = cited from earlier work
Wistar rats = experiment: 12-week chromium supplementation in water of rats fed normal or high fat diet; serum glucose, cholesterol, triglycerides, free fatty acids; assay type: in vivo; conditions: for reduction in serum glucose levels compared with other chromium supplementation: same total elemental chromium; for serum glucose levels / serum triglyceride levels / free fatty acid levels / total serum cholesterol levels: 12 weeks; for serum glucose levels: 1.43 μg chromium in water; for total serum cholesterol levels: rats fed a normal diet (FIG. 3A)
Experimental: Wistar rats were reared at the temperature of (22±2° C.), humidity (55±5%) and a 12/12 h light/dark cycle. Pellet food and water were provided ad libitum. Rats were randomly assigned to one of eight treatment groups. Group 1: Control rats were fed standard diet (12% of calories as fat) for 12 weeks. Group 2: Rats were fed standard diet with chromium picolinate ([…] 1.43 μg chromium) included in the water for 12 weeks. Group 3: […] Group 4: […] Group 5: Rats were fed high fat diet (40% of calories as fat) for 12 weeks. Group 6: Rats were fed high-fat diet (40% of calories as fat) and with chromium picolinate (14.3 μg, providing 1.43 μg chromium) included in the water for 12 weeks. Group 7: […] Group 8: […] Bodyweight, serum glucose, composite insulin sensitivity index (CISI), serum cholesterol, serum triglycerides and serum free fatty acid levels were measured. The baseline levels for the control rats (no chromium supplementation) that were fed normal or high fat diets are shown in Table 1, below. Serum glucose levels, serum cholesterol levels, serum triglyceride levels, and free fatty acid levels were measured in all groups after twelve weeks.

skeletal muscle cells = experiment: Glucose uptake ([3H]-deoxyglucose) in cultured skeletal muscle cells with or without insulin; assay type: cell-based; conditions: insulin-stimulated cells; versus cultures without chromium supplementation
Experimental: The following example describes experiments that compared the effects of chromium supplementation in the form of chromium picolinate versus a combination of chromium picolinate:chormium histidinate (1:1 elemental chromium) on glucose uptake in skeletal muscle cells. The amounts of chromium picolinate and the combination were adjusted so as to provide equimolar amounts of elemental chromium. […] To assess glucose uptake, [^3H]C-deoxyglucose was added to cultures of skeletal muscle, in media with or without insulin and with or without the indicated chromium supplementation. Uptake of the labeled glucose by the cells was calculated.

[2] = rats fed a high fat diet (FIG. 4B)
[3] = rats fed a high fat diet (FIG. 5B)
[4] = rats fed a normal diet (FIG. 4A)
[5] = rats fed a normal diet (FIG. 5A)

Row | Molecule | serum triglyceride levels (Wistar rats; [2]) | free fatty acid levels (Wistar rats; [3]) | total serum cholesterol levels (Wistar rats) | serum triglyceride levels (Wistar rats; [4]) | free fatty acid levels (Wistar rats; [5]) | also measured
1 | [Cl][Cr]([Cl])[Cl] [chromium chloride] | – | – | – | – | – | toxic effects (rats; rats, levels several thousand times the upper limit of the ESADDI for chromium for humans (based on body weight)): without toxic effects
2 | N[C@@H](Cc1c[nH]cn1)C(=O)O [histidine] | – | – | – | – | – | pKa [1]: ~6.0
3 | chromium histidinate | significant decrease | significant decrease | significant decrease | significant decrease | significant decrease | reduction in serum glucose levels compared with other chromium supplementation (Wistar rats; high fat diet rats (FIG. 2B)): significantly greater degree than chromium picolinate; serum glucose levels (Wistar rats; high-fat fed rats): decreased serum glucose levels; reduction in serum glucose levels compared with other chromium supplementation (Wistar rats; normal diet rats (FIG. 2A)): significantly greater degree than chromium picolinate; serum glucose levels (Wistar rats; normal diet rats): decreased serum glucose levels
4 | chromium picolinate | significant decrease | significant decrease | significant decrease | significant decrease | significant decrease | glucose uptake (skeletal muscle cells): stimulated glucose uptake; toxic effects (rats; rat, in vivo): without toxic effects
